Source: ChEMBL document CHEMBL1129865, “Synthesis, evaluation, and crystallographic analysis of L-371,912: A potent and selective active-site thrombin inhibitor” (Bioorg Med Chem Lett, 1997)

Tests used:
Serine protease 1 = molecular target: T1, Serine protease 1 (Bos taurus, UniProt P00760); experiment: In vitro inhibition against bovine trypsin was determined
T1 sequence (P00760 whole entry): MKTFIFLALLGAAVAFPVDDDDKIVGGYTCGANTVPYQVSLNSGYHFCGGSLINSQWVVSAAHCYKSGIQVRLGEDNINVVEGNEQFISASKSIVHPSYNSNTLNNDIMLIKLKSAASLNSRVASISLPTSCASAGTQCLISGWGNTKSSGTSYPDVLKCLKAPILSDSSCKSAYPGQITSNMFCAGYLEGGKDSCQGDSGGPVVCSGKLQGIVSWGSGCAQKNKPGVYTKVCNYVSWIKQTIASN

[1] = Concentration required to double the activated partial thromboplastin time in human plasma was determined; type: functional
Rattus norvegicus [2] = experiment: Efficacy by observing the number of occulation in rat when a dose of 6 ug/Kg/min iv. administration; 3/6; type: functional
Rattus norvegicus [3] = experiment: Efficacy by observing the number of occulation in rat when a dose of 6 ug/Kg/min iv. administration; 1/6; type: functional

Row | Structure (SMILES) | Ki (Serine protease 1) [µM] | APPTT [1] [µM] | Occulations (Rattus norvegicus [2]) | Occulations (Rattus norvegicus [3])
1 | CNC(=O)C(=O)[C@@H](NC(=O)[C@@H]1CCCN1C(=O)[C@@H](Cc1ccccc1)NC)[C@H]1CC[C@H](N)CC1 | 1.15 | 2 | 3 | –
2 | CN[C@H](Cc1ccccc1)C(=O)N1CCC[C@H]1C(=O)NC[C@H]1CC[C@H](N)CC1 | – | 1.1 | – | 1
